Assay results: US4383113A, “Agricultural sulfonamides” (E. I. Du Pont de Nemours and Company, priority 1981, dated 1983)

Tests used:
purple nutsedge [1] = assay: Test F post-emergence; type: in vivo, Cyperus rotundus
Text: (§1) Purple nutsedge tubers (Cyperus rotundus) were planted about 2 cm deep in Fallsington silt loam contained in plastic pots 10 cm in diameter. Five tubers were put in each pot. Compounds of this invention were sprayed dissolved in a non-phytotoxic solvent at a volume rate of 560 l/ha. in four different methods of treatment, i.e., soil surface spray, tuber/soil spray, soil incorporated and post-emergence. For the soil surface spray, the compounds were sprayed on the firmed soil surface immediately after planting. For the tuber/soil spray, the compounds were sprayed on the exposed tubers and subtending soil before the untreated covering soil was added. Soil incorporation treatments were mixed in the covering soil. Post-emergence treatments were sprayed on the nutsedge foliage and surrounding soil surface after the nutsedge had emerged and had reached the height of about 12 cm.
(§2) Immediately after spraying the surface spray, tuber/soil spray and soil incorporated treatments were misted with about 0.3 cm of water over a 90 minute period and then placed in the greenhouse. Post-emergence treatments were placed directly into the greenhouse and watered carefully so that treatments would not be washed from the foliage.

purple nutsedge [2] = assay: Test F soil incorporated; type: in vivo, Cyperus rotundus
Text: as §1, §2

purple nutsedge [3] = assay: Test F soil surface spray; type: in vivo, Cyperus rotundus
Text: as §1, §2

purple nutsedge [4] = assay: Test F tuber/soil spray; type: in vivo, Cyperus rotundus
Text: as §1, §2

dewberry = assay: Test K field post-emergence; type: in vivo; settings: 16 weeks
Procedure: (§3) The response of a number of noxious weed species to post-emergence applications of the same compound as used in Test J was studied in another field test. At the time of treatment, one month after mowing, the mixed vegetation was approximately 15 cm tall. The chemical was applied in water containing 0.2% of Surfactant WK® at an overall volume of 500 l/ha. Each treatment was replicated three times. Approximately 5 cm of rainfall was recorded 4 days after treatment and an additional 37 cm fell before weed control ratings were made 16 weeks after treatment.

golden rod = assay: Test K field post-emergence; type: in vivo; settings: 16 weeks
Procedure: as §3

grasses = assay: Test K field post-emergence; type: in vivo; settings: 16 weeks
Procedure: as §3

poison ivy = assay: Test K field post-emergence; type: in vivo; settings: 16 weeks
Procedure: as §3

broadleaves = assay: Test K field post-emergence; type: in vivo; settings: 16 weeks
Procedure: as §3

purpletop = assay: Test K field post-emergence; type: in vivo; settings: 16 weeks
Procedure: as §3

[5] = tested on: mixed vegetation, overall; assay: Test K field post-emergence; type: in vivo; settings: 16 weeks
Procedure: as §3

broomsedge = assay: Test K field post-emergence; type: in vivo; settings: 16 weeks
Procedure: as §3

kochia = assay: Test E pre-emergence; type: in vivo, Kochia scoparia
Text: (§4) The containers used were 25 cm diameter plastic pots filled with fertilized and limed Fallsington silt loam. Plantings of the following weed species were made twice, at a 10-day interval: mustard (Brassica arvensis), cocklebur (Xanthium spp.), morningglory (Ipomoea hederacea), cassia (Cassia tora), velvetleaf (Abutilon theophrasti), alfalfa (used as an indicator species), kochia (Kochia scoparia), sesbania (Sesbania exaltata), Russian thistle (Salsola kali), jimsonweed (Datura stramonium),and nutsedge (Cyperus rotundus). In addition, wheat and barley were planted in separate 15 cm diameter plastic pots filled with the same soil at the time of the early planting only. All plantings were treated with the test chemicals dissolved in a non-phytotoxic solvent immediately following completion of the second planting operation. At this time, the wheat was around 15-17.5 cm tall and the barley 12.5 to 15 cm tall, both in the 2-leaf stage of growth. The weed species of the earliest planting date were from 2.5 to 12.5 cm tall. The rates of application selected were 0.004, 0.007, 0.015 and 0.030 kg/ha for the weed phase and 0.12, 0.25 and 0.50 kg/ha for wheat and barley. The post-emergence part of this test was visually rated for plant response 21 days after treatment, and the pre-emergence part 28 days after treatment.

nutsedge = assay: Test E pre-emergence; type: in vivo, Cyperus rotundus
Text: as §4

velvetleaf = assay: Test E pre-emergence; type: in vivo, Abutilon theophrasti
Text: as §4

morningglory = assay: Test E pre-emergence; type: in vivo, Ipomoea hederacea
Text: as §4

Russian thistle = assay: Test E pre-emergence; type: in vivo, Salsola kali
Text: as §4

alfalfa = assay: Test E pre-emergence; type: in vivo; settings: 1/256 kg/ha
Text: as §4

mustard = assay: Test E pre-emergence; type: in vivo, Brassica arvensis
Text: as §4

COC(=O)c1ccccc1S(=O)(=O)NC(=O)Nc1nnc(C)c(C)n1 [drawing 597]
response rating after 4 weeks (purple nutsedge [1]; .032 kg/ha): 0
response rating after 4 weeks (purple nutsedge [1]; .125 kg/ha): 9C
response rating after 4 weeks (purple nutsedge [1]; .5 kg/ha): 10C
response rating after 4 weeks (purple nutsedge [2]; .032 kg/ha): 3G
response rating after 4 weeks (purple nutsedge [3]; .032 kg/ha): 2G
response rating after 4 weeks (purple nutsedge [4]; .032 kg/ha): 2G

COc1nc(NC(=O)NS(=O)(=O)c2ccccc2C(=O)OC(C)C)nc(OC)n1 [drawing 600]
response rating after 4 weeks (purple nutsedge [1]; .004 kg/ha): 8C
response rating after 4 weeks (purple nutsedge [1]; .008 kg/ha): 9C
response rating after 4 weeks (purple nutsedge [1]; .016 kg/ha): 9C
response rating after 4 weeks (purple nutsedge [1]; .032 kg/ha): 10C
response rating after 4 weeks (purple nutsedge [2]; .004 kg/ha): 8G
response rating after 4 weeks (purple nutsedge [2]; .008 kg/ha): 8G
response rating after 4 weeks (purple nutsedge [3]; .004 kg/ha): 8G
response rating after 4 weeks (purple nutsedge [3]; .008 kg/ha): 8G
response rating after 4 weeks (purple nutsedge [4]; .004 kg/ha): 7G
response rating after 4 weeks (purple nutsedge [4]; .008 kg/ha): 8G

COC(=O)c1cc(Cl)ccc1S(=O)(=O)NC(=O)Nc1nc(OC)nc(OC)n1 [drawing 603]
response rating after 4 weeks (purple nutsedge [1]; .008 kg/ha): 3G
response rating after 4 weeks (purple nutsedge [1]; .125 kg/ha): 10C
response rating after 4 weeks (purple nutsedge [2]; .008 kg/ha): 5G
response rating after 4 weeks (purple nutsedge [2]; .032 kg/ha): 7G
response rating after 4 weeks (purple nutsedge [2]; .125 kg/ha): 9G
response rating after 4 weeks (purple nutsedge [3]; .008 kg/ha): 3G
response rating after 4 weeks (purple nutsedge [3]; .032 kg/ha): 7G
response rating after 4 weeks (purple nutsedge [3]; .125 kg/ha): 9G
response rating after 4 weeks (purple nutsedge [4]; .008 kg/ha): 4G
response rating after 4 weeks (purple nutsedge [4]; .032 kg/ha): 7G
response rating after 4 weeks (purple nutsedge [4]; .125 kg/ha): 9G

COC(=O)c1ccccc1S(=O)(=O)NC(=O)Nc1nc(C)cc(C)n1 [drawing 613]
mean % weed control (dewberry; 1.0 kg/ha): 100%
mean % weed control (dewberry; 2.0 kg/ha): 100%
mean % weed control (dewberry; .5 kg/ha): 97%
mean % weed control (golden rod; 1.0 kg/ha): 100%
mean % weed control (golden rod; 2.0 kg/ha): 100%
mean % weed control (golden rod; .5 kg/ha): 100%
mean % weed control (grasses; 1.0 kg/ha): 84%
mean % weed control (grasses; 2.0 kg/ha): 93%
mean % weed control (grasses; .5 kg/ha): 81%
mean % weed control (poison ivy; 1.0 kg/ha): 85%
mean % weed control (poison ivy; 2.0 kg/ha): 95%
mean % weed control (poison ivy; .5 kg/ha): 67%
mean % weed control (broadleaves; 1.0 kg/ha): 96%
mean % weed control (broadleaves; 2.0 kg/ha): 98%
mean % weed control (broadleaves; .5 kg/ha): 91%
mean % weed control (purpletop; 1.0 kg/ha): 80%
mean % weed control (purpletop; 2.0 kg/ha): 92%
mean % weed control (purpletop; .5 kg/ha): 73%
mean % weed control ([5]; 1.0 kg/ha): 90%
mean % weed control ([5]; 2.0 kg/ha): 94%
mean % weed control ([5]; .5 kg/ha): 81%
mean % weed control (broomsedge; 1.0 kg/ha): 73%
mean % weed control (broomsedge; 2.0 kg/ha): 86%
mean % weed control (broomsedge; .5 kg/ha): 71%

COc1nc(C)nc(NC(=O)NS(=O)(=O)c2ccccc2C(=O)OC(C)C)n1 [drawing 588]
response rating (kochia; 1/32 kg/ha): 10C
response rating (kochia; 1/64 kg/ha): 10C
response rating (kochia; 1/128 kg/ha): 10C
response rating (nutsedge; 1/32 kg/ha): 8G
response rating (nutsedge; 1/64 kg/ha): 8G
response rating (velvetleaf; 1/32 kg/ha): 10C
response rating (velvetleaf; 1/64 kg/ha): 10C
response rating (morningglory; 1/32 kg/ha): 10C
response rating (morningglory; 1/64 kg/ha): 10C
response rating (Russian thistle; 1/32 kg/ha): 10C
response rating (Russian thistle; 1/64 kg/ha): 10C
response rating (Russian thistle; 1/128 kg/ha): 8C
response rating (Russian thistle; 1/256 kg/ha): 7C
response rating (alfalfa): 7G
response rating (mustard; 1/32 kg/ha): 10C
response rating (mustard; 1/64 kg/ha): 10C
response rating (mustard; 1/128 kg/ha): 10C
response rating (mustard; 1/256 kg/ha): 10C
